Experiments:
[1] = test system: mitochondrial membrane potential (Δψm) in live PF T. brucei; experiment: MitoTracker monitoring of mitochondrial membrane potential; assay type: cell-based, Trypanosoma brucei; settings: 2 h, AA and OA 2 μM, DNP 1 mM
From the text: To determine which mitochondrial complex of oxidative phosphorylation was targeted by B-THP-T compounds, their effects on the mitochondrial membrane potential (Δψm) were monitored in live PF T. brucei (Fig 6A). MitoTracker Red CMXRos, like tetramethylrhodamine and safranine, accumulates in active mitochondria and the degree of accumulation is dependent on the Δψm, however, accumulation of MitoTracker Green FM is independent of the Δψm and the ratio of red/green uptake can therefore be used to determine the Δψm normalised to the number and size of mitochondria present. […] Similarly, compounds 1 and 3 elevated the mitochondrial membrane potential (by 2-3-fold), confirming that they, like OA, reduce oxidative phosphorylation by the inhibition of the FoF1-ATP synthase.
Fig 6 Effects of compounds on mitochondrial membrane potential. PF T. brucei were incubated with inhibitors and MitoTracker Red CMXRos, which is an indicator of the mitochondrial membrane potential (Δψm). (A) MitoTracker-loaded cells were imaged to qualitatively detect differences in the Δψm. […] (B) Fluorescence of MitoTracker-loaded cells were quantified using a microplate reader and normalised to MitoTracker green fluorescence.
2 x 10^6 PF T. brucei cells were incubated in 1 mL GF-SDM-79 growth media supplemented with/without inhibitors for 2 h. B-THP-Ts were used at 40 μM, AA and OA at 2 μM, DNP at 1 mM and SHAM at 100 μM. MitoTracker Red CMXRos and MitoTracker Green FM were added to 100 nM and 1 μM respectively and incubated for a further 10 min. Cells were washed in growth medium and the MitoTracker reagents chased into the mitochondrion for 10 min in fresh growth medium supplemented with inhibitors. Cells were washed again in growth medium to remove unincorporated MitoTracker reagents, pelleted, suspended in 100 μL 4% PFA in PBS, and fixed at RT in the dark for 10 min. Fixed cells were pelleted and suspended in 100 μl PBS. Cells were transferred to poly-lysine-coated slides and mounted with DAPI-containing SlowFade mounting medium (Invitrogen). Fluorescence images were collected with a DeltaVision microscope (as detailed above) to show MitoTracker localisation and comparative intensity.
1 mL of cells at 1 x 10^7 cells/mL were labelled as above. However, instead of fixing cells they were resuspended in 200 μL growth medium and transferred to 96-well plates. Fluorescences were recorded (excitation at 540/35 nm, emission at 590/10 nm for MitoTracker Red CMXRos, and excitation at 485/20 nm, emission at 528/20 nm for MitoTracker Green FM) using a BioTek FLX800 spectrofluorimeter and Gen5 Reader Control 2.0 software, in much the same way as others have recorded previously. Background fluorescence values were subtracted from each and MitoTracker Red fluorescences normalised against their MitoTracker Green FM counterparts. Membrane potentials were then calculated relative to the uninhibited controls.

[2] = test system: ATP production (oxidative phosphorylation) in digitonin-permeabilised PF T. brucei; experiment: ATP production assay in digitonin-permeabilised cells; assay type: cell-based, Trypanosoma brucei; settings: 30 min; for Inhibition of ATP production from Gly-3P / Effect on ATP production from Gly-3P: glycerol-3-phosphate as substrate; for Inhibition of ATP production from Gly-3P / Effect on ATP production from succinate: compound 1, AA, OA 200 μM, DNP 1 mM; for Effect on ATP production from succinate: succinate 2.5 mM as substrate; for Effect on ATP production from succinate / Effect on ATP production from Gly-3P: malonate 5 mM, rotenone, SHAM 100 μM
From the text: We next sought to identify the point at which ATP production was blocked using digitonin-permeabilised cells. Digitonin permeabilises the plasma membrane of trypanosomatids, but crucially, leaves the glycosomes and mitochondria intact and fully functional, allowing them to be probed with compartment-specific ATP-yielding substrates. Digitonin-permeabilised PF T. brucei were probed with succinate, which is readily transported across the PF T. brucei mitochondrial membrane by the dicarboxylic acid carrier and can yield only oxidative phosphorylation-derived ATP through the FoF1-ATP synthase (complex V).
Fig 5 Inhibition of ATP production in digitonin-permeabilsed cells. (A-C) Digitonin-permeabilised PF T. brucei were probed with substrates in the presence of inhibitors and resulting ATP production quantified by bioluminescence assay. See experimental section for details. Inhibitors were used at saturating concentrations to ensure that relevant enzyme activities were ablated. Key: NS, no substrate; NI, no inhibitor; SHAM, salicylhydroxamic acid (TAO inhibitor at 100 μM); Rotenone (complex I inhibitor at 100 μM); Malonate (complex II inhibitor at 5 mM); AA, antimycin A (complex III inhibitor at 200 μM); OA, oligomycin A (complex V inhibitor at 200 μM); DNP, 2,4-dinitrophenol (protonophore at 1 mM); Comp.1, compound 1 at 200 μM. Background relative light units (RLU) were subtracted from measurements and % ATP production normalised to the no inhibitor control. Data were averaged from three independent experiments, each performed in quadruplicate. Error bars show standard deviations. T-tests were performed against no inhibitor controls (black asterisks) and compound 1 (grey open circles) and significance values presented: p < 0.00005 (*** / °°°), p < 0.0005 (** / °°), p < 0.005 (* / °). (A) Succinate was used as a substrate to generate ATP solely through oxidative phosphorylation (OxPhos). Oxidative phosphorylation inhibitors malonate, AA, OA and DNP virtually eliminated all ATP production. […] (B) α-ketoglutarate yields 40% ATP through substrate-level phosphorylation (SubPhos) and 60% through oxidative phosphorylation. Malonate, AA, OA and DNP inhibit oxidative phosphorylation, but not substrate-level phosphorylation. […] (C) Gly-3P acts as an alternative entry site to the electron transport chain yielding ATP through oxidative phosphorylation and the glycosome (GlyPhos). Malonate has no effect, as it acts at a different entry point. AA, OA and DNP inhibit oxidative phosphorylation, but not glycosomal phosphorylation.
ATP production assays were carried out in duplicate, and three independent assays were conducted. Cells were digitonin-permeabilised as previously described. Briefly, cells were washed in PBS and permeabilised for 5 min at a density of 1x10^8 cells/mL in SoTE buffer (20 mM Tris.HCl (pH 7.5), 2 mM EDTA pH 7.5, 600 mM sorbitol) supplemented with 0.015% (w/v) digitonin. Permeabilised cells were pelleted at 5000 g for 3 min at 4°C and suspended to 8.4x10^7 cells/mL in ATP assay buffer (20 mM Tris.HCl (pH 7.4), 15 mM KH2PO4, 0.6 M sorbitol, 10 mM MgSO4, 2.5 mg/mL fatty acid-free BSA.
ATP production assays were carried out in 75 μl volumes in 96-well plates with a final PF T. brucei cell density of 6.7 x 10^7 cells/mL as previously reported. […] B-THP-Ts, antimycin A (AA) and oligomycin A (OA) were used at 200 μM, Dinitrophenol (DNP) at 1 mM, malonate at 5 mM, rotenone at 100 μM and salicylhydroxamic acid (SHAM) at 100 μM. 59.25 μL digitonin-permeabilised cells (prepared above) were added to 0.75 μl inhibitor dissolved in DMSO (or 0.75 μL DMSO without inhibitor for no inhibitor control) and incubated for 10 min to allow inhibitors to take effect. Substrate was added to 2.5 mM and incubated for 10 min. Reactions were started with the addition of ADP to 60 μM and incubated at RT for 30 min. […]

HeLa = experiment: Toxicity (EC50) in HeLa cells; assay type: cell-based; settings: Homo sapiens, footnote b, read-out: EC50 values Mammal HeLa
From the text: Fig 1 Labelling and detection of B-THP-T target(s). (A) Structures of chamuvarinin and simplified analogues thereof as probes used in this study and their respective toxicity in selected cell lines. Bi-functional compound 3 contains a diazirine (blue) to cross-link the compound to its target and an alkyne handle (red) to which an azide-containing reporter probe can be added. Mono-functional compound 2 contains the diazirine to cross-link to its target but lacks the alkyne handle and cannot be appended with an azide reporter probe. Lead B-THP-T, compound 1, lacks both diazirine and alkyne. The additional functional groups on compounds 2 and 3 are minor alterations, which have little effect on inhibitor potency. (B) Overview of the in vivo pulse-chase photo-affinity labelling procedure. B-THP-T were incubated with live PF T. brucei cells and trafficked to their targets. Following UV-irradiation, only compounds containing a diazirine (i.e. compounds 2 and 3) could cross-link with target proteins. The subsequent “click reaction” appended the conjugated B-THP-T with a reporter probe as long as an alkyne handle was present (i.e. on compound 3). Refer to the experimental section for details. (C) Detection of Cy5.5-tagged proteins following photo-affinity labelling. Proteins were separated by SDS-PAGE and conjugated Cy5.5 was detected at 700 nm. […]

T. brucei PF = experiment: Toxicity (EC50, cell viability) in procyclic form T. brucei; assay type: cell-based; settings: Trypanosoma brucei, live cells, 72 h incubation, footnote a
From the text: (§1) Fig 1 Labelling and detection of B-THP-T target(s). (A) Structures of chamuvarinin and simplified analogues thereof as probes used in this study and their respective toxicity in selected cell lines. Bi-functional compound 3 contains a diazirine (blue) to cross-link the compound to its target and an alkyne handle (red) to which an azide-containing reporter probe can be added. Mono-functional compound 2 contains the diazirine to cross-link to its target but lacks the alkyne handle and cannot be appended with an azide reporter probe. Lead B-THP-T, compound 1, lacks both diazirine and alkyne. The additional functional groups on compounds 2 and 3 are minor alterations, which have little effect on inhibitor potency. (B) Overview of the in vivo pulse-chase photo-affinity labelling procedure. B-THP-T were incubated with live PF T. brucei cells and trafficked to their targets. Following UV-irradiation, only compounds containing a diazirine (i.e. compounds 2 and 3) could cross-link with target proteins. The subsequent “click reaction” appended the conjugated B-THP-T with a reporter probe as long as an alkyne handle was present (i.e. on compound 3). Refer to the experimental section for details. (C) Detection of Cy5.5-tagged proteins following photo-affinity labelling. Proteins were separated by SDS-PAGE and conjugated Cy5.5 was detected at 700 nm. Lanes 1–3 correspond to usage of compounds 1–3 respectively. Several proteins in lane 3 were conjugated with Cy5.5 via labelling with bi-functional compound 3. […]
The potency of lead B-THP-T, compound 1, was determined against oxidative phosphorylation in dose-response assays in digitonin-permeabilised PF T. brucei.
Supplementary file pntd.0005886.s001.tiff: S1 Fig Dose-response of B-THP-T compounds in PF T. brucei. EC50 values were determined for compounds 1–3 in PF T. brucei. […]

T. brucei BSF = experiment: Toxicity (EC50) in bloodstream form T. brucei; assay type: cell-based, Trypanosoma brucei; settings: Trypanosoma brucei; bloodstream form; footnote b
From the text: as §1

Compound	Effect on mitochondrial membrane potential (Δψm) [1]	Inhibition of ATP production from Gly-3P [2] [%]	Effect on ATP production from succinate [2]	EC50 (HeLa) [µM]	EC50 (T. brucei PF) [µM]	EC50 (T. brucei BSF) [µM]	Effect on ATP production from Gly-3P [2]
O=[N+]([O-])c1ccc(O)c([N+](=O)[O-])c1 [2,4-dinitrophenol]	decrease the mitochondrial membrane potential	67 ± 13	almost abolished ATP production	–	–	–	–
oligomycin A	elevates the Δψm	65 ± 21	almost abolished ATP production	–	–	–	–
OCCCC[C@H]1CC2(C[C@@H](Cn3cc([C@@H]4CCC[C@H](CCCCOCc5ccccc5)O4)nn3)O1)N=N2 [Compound 2, 4-((5S,7S)-7-((4-((2S,6S)-6-(4-(benzyloxy)butyl)tetrahydro-2H-pyran-2-yl)-1H-1,2,3-triazol-1-yl)methyl)-6-oxa-1,2-diazaspiro[2.5]oct-1-en-5-yl)butan-1-ol]	–	–	–	20.9 ± 3	8.9 ± 0.2	11.8 ± 0.8	–
C=C(C)[C@H]1Cc2c(ccc3c2O[C@@H]2COc4cc(OC)c(OC)cc4[C@@H]2C3=O)O1 [rotenone]	–	–	no significant effect	–	–	–	no effect
O=C(NO)c1ccccc1O [salicylhydroxamic acid]	–	–	no significant effect	–	–	–	no effect
